# Data reported in a melting point compilation (Tetko et al.; mined from patent text by program, amines drawn as free bases though some values may be those of a salt).
row,Structure (SMILES),melting point [°C]
1,COc1ccc(/C(C)=C/c2ccncc2)cc1OC1CCCC1,78 to 79
2,COC(=O)c1cc(Cl)cc(O)c1O,102
3,NC(=O)c1cn(-c2ccc(F)cc2)c2cc(Cl)ccc2c1=O,294 to 296
4,Cc1c(Cl)nc(N2CCNCC2)nc1NC(C)C,199
5,COC(=O)c1cccc(C(=O)c2cc(C(=O)OC)cc(OC)c2OC)c1,160 to 161
6,CCN(Cc1cc(Br)ccc1OCC1CC1)c1ccc(C(=O)O)cn1,175 to 177
7,CCS(=O)(=O)c1nn2c(-c3ccc(OC)cc3)nnc2c2ccccc12,210 to 213
8,N#Cc1ccc(-c2cn(-c3ccc(I)cc3)c(SCc3ccncc3)n2)cc1,155 to 162
9,CCOC(=O)c1c(-c2ccccc2)c2ccc(OC)cc2[nH]c1=O,175 to 177
10,CC(=O)c1c(-c2ccccc2)nn(CC2CC2)c(=O)c1Nc1cccc2cccnc12,123 to 125
11,NC(=O)C1(c2ccccc2)CCN(Cc2ccccc2)CC1,117 to 118
12,CCCC(O)c1c(C)c(NC(=O)CC(C)(C)C)c(C)c2c1OCC2c1ccc(C(C)C)cc1 (configuration not stated),150 to 151
13,CCCn1c(CCOC)nc2c(N)nc3cc(OCCCS(C)(=O)=O)ccc3c21,170 to 171
14,O=c1[nH]c2cc([N+](=O)[O-])ccc2c(=O)n1CCCN1CC=C(c2ccc(Cl)cc2)CC1,210 to 212
15,O=C(O)CCOCCCc1cccc(-c2nc(=O)c3ccccc3s2)n1,141 to 142
16,CC1=C(C(=O)Nc2cnc3c(C)cc(C)cc3c2-c2ccccc2Cl)Sc2ccccc2N1,177 to 178
17,O=C1CC2Cc3c(Cl)cccc3C2N1 (configuration not stated),186 to 187
18,ClCCCCOc1ccc(OCCCCCl)cc1,158 to 159
19,COc1cc2c(cc1OC)CN(C(c1ccccc1)c1ccccc1)C2,126 to 128
20,COc1cccc2c1CN(c1nc3c(cc1F)c(=O)c(C(=O)O)cn3C1CC1)C2,> 300
21,COc1ccccc1N1CCN(CC(O)COc2cc(C)c(O)c(C)c2C)CC1 (configuration not stated),163 to 165
22,Cn1ncc(C(=O)N2CCOCC2)c1C(=O)Nc1ccn2nc(-c3cccnc3)nc2c1,218 to 220
23,CCOC(=O)c1c2ccc(Cl)cc2c(-c2ccccc2)n1CCOS(C)(=O)=O,125 to 127
24,CCOC(=O)C1=CC(=O)N=N1,235 to 238

row,Structure (SMILES),melting point [°C]
1,Cn1cc(S(=O)(=O)NCc2ccccc2)c(=O)c2ccc(Cl)cc21,208 to 210
2,CCCC(=O)c1cnc2c(C)cccc2c1Nc1ccc(OC)cc1C,114 to 115
3,Nc1c(C(=O)CCC(=O)O)cccc1C(=O)c1ccccc1,161 to 162
4,Cc1cccc2c1nc1n2CC(c2ccccn2)S1 (configuration not stated),96
5,Nc1ccc(NC2CCCCCC2)c([N+](=O)[O-])c1,153
6,CCc1ccc2c(O)ccnc2c1,148 to 152
7,Cc1nc2cc(Cl)cc(Cl)c2o1,110 to 113
8,COc1ccc(-c2c(NC(=O)c3cc(C(C)(C)C)c(O)c(C(C)(C)C)c3)cnc3ccc(Cl)cc23)cc1OC,293 to 294
9,Cc1ccc(C2COc3c(C)c(C)c(N)c(C)c32)nc1 (configuration not stated),125 to 127
10,O=C(NC1CC1c1ccccc1)C1Cc2ccccc2N1S(=O)(=O)c1ccc(-c2ccc(F)cc2)cc1 (configuration not stated),80
11,Nc1cnc2cc3c(cc2c1-c1ccccc1Cl)CCC3,179 to 180
12,c1ncn(Cc2nc(-c3ccc4c(c3)OCO4)c3cc4c(cc3n2)OCO4)n1,195 to 198
13,CC(OC(=O)c1cn(-c2ccc(F)cc2)c(-c2ccc(N(C)C)cc2)cc1=O)OC(=O)C(C)(C)C (configuration not stated),117 to 120
14,CC[C@@]1(c2cc(F)cc(OCc3ccc4c(ccc(=O)n4C)c3)c2)CCO[C@H](C)C1 (racemic),99
15,CCOC(=O)C=Cc1ccc(C)nc1,36 to 37
16,Cc1cc(C#N)cn2cc(-c3ccc(-c4ccc(C#N)cc4)o3)nc12,276 to 277
17,CC(C)NC(=O)N1CCc2cc(S(=O)(=O)n3cc(-c4ccccc4)[nH]c3=O)ccc21,214 to 216
18,Clc1ccccc1-c1noc(-c2ccccc2Cl)n1,91 to 92
19,O=[N+]([O-])c1cc([N+](=O)[O-])c2ccccc2c1Nc1ccc(OC(F)(F)F)c(Cl)c1,140
20,CC(C)(C)OC(=O)N1Cc2ccccc2CN1CC(O)C(Cc1ccccc1)NC(=O)OCc1ccccc1 (configuration not stated),68 to 71
21,CC(CCNC1=Nc2cccc3cccc1c23)c1ccncc1 (configuration not stated),220 to 221
22,CCCCCCCCCCCCCCCCCCNC(=O)OCC(CO)OC(=O)NC (configuration not stated),92 to 93
23,CCOc1ccc([N+](=O)[O-])c(C=C[N+](=O)[O-])c1OCc1ccccc1,110
24,CN(C)CCN(C)c1ccc(Nc2cc(Br)cn(C)c2=O)nc1,161 to 163

row,Structure (SMILES),melting point [°C]
1,Nc1nc(-n2cc(C(=O)O)c(=O)c3cc(F)c(NCCCO)c(Cl)c32)c(F)cc1F,136 to 142
2,COc1ccc(C=NO)cc1-c1cc2c(cc1C)C(C)(C)CCC2(C)C,152
3,N=c1sc2cc(OC(F)(F)F)ccc2n1CCSc1ncccn1,110
4,COc1cccc2c(C)c3n(c(=O)c12)CCCS3(=O)=O,198 to 199
5,Nc1cccc(Cn2c(-c3ccccc3Cl)cc3ccc(Oc4cncnc4)cc32)n1,115 to 117
6,COC(=O)CCC(=O)Nc1cccnc1,78 to 79
7,N#CC1Sc2ccccc2N1C(=O)c1ccc(Cl)cc1 (configuration not stated),115 to 117
8,CN(C)CCC(Oc1ccc(N)cc1)c1ccccc1 (configuration not stated),82 to 84
9,O=C1c2ccccc2C(=O)N1CCCC(c1ccc(F)cc1)c1ccc(F)cc1,69 to 70
10,NC(=O)c1ccc(C(=C2CC3CCC(C2)N3CCc2ccccc2)c2ccccc2)cc1,210 to 212
11,COc1ccc(-n2c(C)ccc2C)c(F)c1,67 to 69
12,COc1ccc(C2=C(Cl)C(=O)C2)cc1,96 to 98
13,N#Cc1c(C(F)(F)F)[nH]c2cc(Cl)c(Cl)cc12,> 260
14,COc1cc(C(=O)O)ccc1Cc1cn(C)c2ccc(C(=O)N(C)CC3CCCC3)cc12,112 to 114
15,CC(Cc1ccc(OCc2cccc(C(F)(F)F)c2)cc1)NC(=O)CC(c1ccccc1)c1ccccc1 (configuration not stated),110 to 113
16,N=C(N)NCCc1ccc(OCCCCC(c2ccccc2)(c2ccccc2)c2ccccc2)cc1,119 to 121
17,CC(CC#CC(C)(C)O)C1=CCC2C3=CC=C4CC(O)CCC4(C)C3CCC12C (configuration not stated),185 to 192
18,C#CCN1C(=O)c2cccc3c2N(CC3)c2ccccc21,104 to 105
19,COc1cc2ncnc(N3CCN(C(=S)NCc4ccc(C(F)(F)F)cc4)CC3)c2cc1OC,216 to 217
20,CN(C(=O)OC(C)(C)C)c1cc(Oc2cccnc2)ccc1N,101 to 102
21,Oc1ncnc2nc(-c3cccc(Cl)c3)cnc12,> 315
22,OC1Cc2cc(F)ccc2Sc2ccccc21 (configuration not stated),110 to 113
23,CCOC(=O)CCc1cn(-c2ccccc2)nc1OCc1ccccc1,123 to 124
24,CN1CCc2cc(O)c(O)c(Sc3ccc(F)cc3)c2CC1,105 to 114
